Laboratory results from PubChem BioAssay AID248 (DTP/NCI, 2004).
Values joined by “and” are separate entries in the source; they are usually repeats but may differ in a detail not shown here. Equal values may be shown once. Toxic doses and inconclusive results are not listed. Cut-off read from the data, not from the text of the source: active = T/C of 150% or more; inactive = T/C below 125%.

System: L1210 leukemia ip in BDF1 mice, survival T/C
Experiment: NCI In Vivo Anticancer Drug Screen. Data for tumor model L1210 Leukemia (intraperitoneal) in B6D2F1 (BDF1) mice
Conditions: endpoint: mean survival time, higher = longer survival
How it was run: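 Read-out is survival time, reported as the treated-group measurement over the vehicle-control measurement.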

[1] = dose: 50.0 mg/kg/injection, schedule: Q04DX003 (ip), vehicle: Klucel (hydroxypropylcellulose) (HPC)
[2] = dose: 100.0 mg/kg/injection, schedule: Q04DX003 (ip), vehicle: Klucel (hydroxypropylcellulose) (HPC)
[3] = dose: 200.0 mg/kg/injection, schedule: Q04DX003 (ip), vehicle: Klucel (hydroxypropylcellulose) (HPC)
[4] = dose: 100.0 mg/kg/injection, schedule: Q01DX009 (ip), vehicle: Klucel (hydroxypropylcellulose) (HPC)
[5] = dose: 200.0 mg/kg/injection, schedule: Q01DX009 (ip), vehicle: Klucel (hydroxypropylcellulose) (HPC)
[6] = dose: 400.0 mg/kg/injection, schedule: Q04DX003 (ip), vehicle: Klucel (hydroxypropylcellulose) (HPC)
[7] = dose: 100.0 mg/kg/injection, schedule: Q04DX003 (ip), vehicle: saline
[8] = dose: 200.0 mg/kg/injection, schedule: Q04DX003 (ip), vehicle: saline
[9] = dose: 100.0 mg/kg/injection, schedule: Q01DX001 (ip), vehicle: saline
[10] = dose: 200.0 mg/kg/injection, schedule: Q01DX001 (ip), vehicle: saline
[11] = dose: 400.0 mg/kg/injection, schedule: Q01DX001 (ip), vehicle: saline
[12] = dose: 100.0 mg/kg/injection, schedule: Q01DX001 (ip), vehicle: carboxymethylcellulose (CMC)
[13] = dose: 200.0 mg/kg/injection, schedule: Q01DX001 (ip), vehicle: carboxymethylcellulose (CMC)
[14] = dose: 75.0 mg/kg/injection, schedule: Q01DX001 (ip), vehicle: saline
[15] = dose: 50.0 mg/kg/injection, schedule: Q04DX003 (ip), vehicle: saline

Measured: T/C

ClC1=C(Cl)C2(Cl)C3(Cl)C(Cl)=C(Cl)C(Cl)(C3c3ccccc3)C2(Cl)C1c1ccccc1 (stereo unspecified)
inactive: [1] 94 % of control | dose: 100.0 mg/kg/injection, schedule: Q01DX009 (ip), vehicle: saline sonified 96 % of control | [2] 97 % of control | dose: 200.0 mg/kg/injection, schedule: Q01DX009 (ip), vehicle: saline sonified 96 % of control | [3] 89 % of control | dose: 400.0 mg/kg/injection, schedule: Q01DX009 (ip), vehicle: saline sonified 91 % of control

CC(=O)CC(=O)N1CCC(C)CC1
inactive: [4] 96 % of control | [2] 103 % of control | [5] 100 % of control | [3] 101 % of control | dose: 400.0 mg/kg/injection, schedule: Q01DX009 (ip), vehicle: Klucel (hydroxypropylcellulose) (HPC) 95 % of control | [6] 101 % of control

O=C(COc1ccccc1C(=O)O)NCc1ccc(Cl)cc1
inactive: dose: 100.0 mg/kg/injection, schedule: Q04DX003 (ip), vehicle: gum acacia 97 % of control | dose: 200.0 mg/kg/injection, schedule: Q04DX003 (ip), vehicle: gum acacia 95 % of control | dose: 400.0 mg/kg/injection, schedule: Q04DX003 (ip), vehicle: gum acacia 96 % of control

CCOC(=O)C(=CN1CCCCC1)C(=O)OCC
inactive: [7] 98 % of control | [8] 101 % of control | dose: 400.0 mg/kg/injection, schedule: Q04DX003 (ip), vehicle: saline 95 % of control

C/C=C/P(=O)(c1ccccc1)c1ccccc1
inactive: dose: 50.0 mg/kg/injection, schedule: Q01DX001 (ip), vehicle: saline 110 % of control | [9] 110 % of control | [10] 95 % of control | [11] 104 % of control

COc1cc(/C=C2\CCOC2=O)c([N+](=O)[O-])cc1OC
inactive: dose: 50.0 mg/kg/injection, schedule: Q01DX001 (ip), vehicle: carboxymethylcellulose (CMC) 96 % of control | [12] 94 % of control | [13] 94 % of control | dose: 400.0 mg/kg/injection, schedule: Q01DX001 (ip), vehicle: carboxymethylcellulose (CMC) 90 % of control

COc1ccc(CC2NCCc3cc(OC)c(OC)cc32)cc1OC (stereo unspecified)
inactive: [14] 101 % of control

c1ccc2c(c1)CCN(CCCCN1CCc3ccccc3C1)C2
inactive: dose: 25.0 mg/kg/injection, schedule: Q04DX003 (ip), vehicle: saline 100 % of control | [15] 102 % of control | [7] 96 % of control and 97 % of control

O=c1[nH]cnc2c1nnn2C1CC(CO)C(O)C1O (stereo unspecified)
inactive: [15] 92 % of control | [7] 92 % of control | [8] 96 % of control

C/C(=C\c1cc(-c2ccccc2)cc(=O)o1)c1ccccc1
inactive: dose: 100.0 mg/kg/injection, schedule: Q01DX009 (ip), vehicle: saline with Tween-80 89 % of control | dose: 100.0 mg/kg/injection, schedule: Q04DX003 (ip), vehicle: saline with Tween-80 104 % of control | dose: 200.0 mg/kg/injection, schedule: Q01DX009 (ip), vehicle: saline with Tween-80 97 % of control | dose: 200.0 mg/kg/injection, schedule: Q04DX003 (ip), vehicle: saline with Tween-80 95 % of control | dose: 400.0 mg/kg/injection, schedule: Q01DX009 (ip), vehicle: saline with Tween-80 89 % of control | dose: 400.0 mg/kg/injection, schedule: Q04DX003 (ip), vehicle: saline with Tween-80 103 % of control

Cc1ccc(S(=O)(=O)NC(CO)C(=O)O)cc1 (stereo unspecified)
inactive: dose: 37.5 mg/kg/injection, schedule: Q01DX009 (ip), vehicle: saline 96 % of control | [14] 103 % of control | dose: 75.0 mg/kg/injection, schedule: Q01DX009 (ip), vehicle: saline 98 % of control | dose: 75.0 mg/kg/injection, schedule: Q04DX003 (ip), vehicle: saline 102 % of control | dose: 150.0 mg/kg/injection, schedule: Q01DX001 (ip), vehicle: saline 92 % of control | dose: 150.0 mg/kg/injection, schedule: Q01DX009 (ip), vehicle: saline 106 % of control | dose: 150.0 mg/kg/injection, schedule: Q04DX003 (ip), vehicle: saline 103 % of control | dose: 300.0 mg/kg/injection, schedule: Q01DX001 (ip), vehicle: saline 98 % of control | dose: 300.0 mg/kg/injection, schedule: Q04DX003 (ip), vehicle: saline 102 % of control

CCCCCCCCCCCCNC(=O)C[n+]1ccc(C(N)=O)cc1
inactive: [7] 94 % of control

Cc1cccn2c(=O)cc(Cl)nc12
inactive: [12] 96 % of control | [13] 98 % of control

CN(C)C(=O)NS(=O)(=O)c1ccc(Cl)cc1
inactive: [2] 91 % of control | [3] 96 % of control | [6] 95 % of control

O=c1cc(N=Nc2ccc(O)cc2)[nH]c(=O)[nH]1
inactive: dose: 100.0 mg/kg/injection, schedule: Q01DX009 (ip), vehicle: water 94 % of control | dose: 100.0 mg/kg/injection, schedule: Q04DX003 (ip), vehicle: water 103 % of control | dose: 200.0 mg/kg/injection, schedule: Q01DX009 (ip), vehicle: water 94 % of control | dose: 200.0 mg/kg/injection, schedule: Q04DX003 (ip), vehicle: water 103 % of control | dose: 400.0 mg/kg/injection, schedule: Q01DX009 (ip), vehicle: water 92 % of control | dose: 400.0 mg/kg/injection, schedule: Q04DX003 (ip), vehicle: water 104 % of control

O=C(Nc1ccc(F)c([N+](=O)[O-])c1)Oc1cc(=O)oc2ccccc12
inactive: dose: 25.0 mg/kg/injection, schedule: Q04DX003 (ip), vehicle: Klucel (hydroxypropylcellulose) (HPC) 104 % of control | [1] 101 % of control | dose: 75.0 mg/kg/injection, schedule: Q01DX001 (ip), vehicle: Klucel (hydroxypropylcellulose) (HPC) 102 % of control | dose: 75.0 mg/kg/injection, schedule: Q01DX009 (ip), vehicle: Klucel (hydroxypropylcellulose) (HPC) 93 % of control and 103 % of control | [4] 103 % of control and 92 % of control | dose: 100.0 mg/kg/injection, schedule: Q04DX002 (ip), vehicle: Klucel (hydroxypropylcellulose) (HPC) 95 % of control and 107 % of control | [2] 98 % of control | dose: 150.0 mg/kg/injection, schedule: Q01DX001 (ip), vehicle: Klucel (hydroxypropylcellulose) (HPC) 102 % of control | dose: 150.0 mg/kg/injection, schedule: Q01DX009 (ip), vehicle: Klucel (hydroxypropylcellulose) (HPC) 87 % of control and 92 % of control | [5] 97 % of control | dose: 200.0 mg/kg/injection, schedule: Q04DX002 (ip), vehicle: Klucel (hydroxypropylcellulose) (HPC) 100 % of control and 102 % of control | dose: 300.0 mg/kg/injection, schedule: Q01DX001 (ip), vehicle: Klucel (hydroxypropylcellulose) (HPC) 107 % of control | dose: 400.0 mg/kg/injection, schedule: Q04DX002 (ip), vehicle: Klucel (hydroxypropylcellulose) (HPC) 95 % of control and 96 % of control

CCOC(=O)/C=C(/Nc1ccc(C(=O)c2ccccc2)cc1)C(=O)OCC
inactive: dose: 100.0 mg/kg/injection, schedule: Q01DX001 (ip), vehicle: acetone 87 % of control | dose: 100.0 mg/kg/injection, schedule: Q04DX003 (ip), vehicle: acetone 95 % of control | dose: 200.0 mg/kg/injection, schedule: Q01DX001 (ip), vehicle: acetone 92 % of control | dose: 200.0 mg/kg/injection, schedule: Q04DX003 (ip), vehicle: acetone 93 % of control | dose: 400.0 mg/kg/injection, schedule: Q01DX001 (ip), vehicle: acetone 90 % of control | dose: 400.0 mg/kg/injection, schedule: Q04DX003 (ip), vehicle: acetone 98 % of control

BrC=C=C1CCCCC1
inactive: dose: 100.0 mg/kg/injection, schedule: Q01DX009 (ip), vehicle: saline 98 % of control | dose: 200.0 mg/kg/injection, schedule: Q01DX009 (ip), vehicle: saline 93 % of control | dose: 400.0 mg/kg/injection, schedule: Q01DX009 (ip), vehicle: saline 95 % of control

CCOC(=O)C12CCC(C(=O)OCC)(CC1=O)C(=O)C2
inactive: dose: 100.0 mg/kg/injection, schedule: Q04DX002 (ip), vehicle: saline with Tween-80 88 % of control | dose: 200.0 mg/kg/injection, schedule: Q04DX002 (ip), vehicle: saline with Tween-80 95 % of control | dose: 400.0 mg/kg/injection, schedule: Q04DX002 (ip), vehicle: saline with Tween-80 98 % of control

C[n+]1csc2ccccc21
inactive: [9] 108 % of control | [10] 103 % of control | [11] 103 % of control

COC1=CC2C3=C(C(NC=O)CCc4cc(OC)c(OC)c(OC)c43)C2C1=O (stereo unspecified)
inactive: [2] 95 % of control | [3] 100 % of control | [6] 102 % of control
